Data: US7119217B2, “Tri(alkylcarboxylato)gallium (III) products and pharmaceutical compositions containing them” (Genta Incorporated, priority 2002, dated 2006)

Tests used:
Caco-2 monolayer cells = assay: Caco-2 apical to basolateral (A to B) absorption/transport assay; details: for % Absorbed: Caco-2 monolayer, 37° C., 5% CO2; for % Absorbed / Trsp: apical to basolateral, 2 hours incubation; for Trsp: Caco-2 transport rate; for Ratio (Caco-2 transport ratio): ratio of the transport rate to the transport rate of the reference compound mannitol
Source text: (§1) Values for Caco-2 transport are also expressed herein as transport ratios that represent the ratio of the transport rate for the proband (e.g. tri(alkylcarboxylato) gallium(III) compound) to the transport rate of a reference compound. Mannitol was the reference compound used in the calculation of the Caco-2 transport ratios discussed herein.
(§2) The evaluation protocol of the apical to basolateral (A to B) absorption of a test article in Caco-2 monolayer cells is known to those of skill in the art as follows.
(§3) Caco-2 cells are plated in individual Transwells® in 24-well tissue culture plates and cultured for 3 days to establish the cultures. After 3 days, the cells are tested for transepithelial electrical resistance (TEER) as a measure of the formation of tight junctions between cells. Only cells with a TEER equal to or greater than about 330 Ω·cm^2 cm^2 are used. The proband or the control article (reference) is applied to the apical side of Caco-2 cells and incubated for 2 hours (37° C., 5% CO2). At t=2 hr, the media in each well are collected and stored until later analysis. Aliquots of the dosing solution are retained for analysis along with the samples.
(§4) For test samples, the analysis is repeated three times while the N value for all the control groups is six. The controls are [^3H]propranolol for fast transport and [^3H]mannitol for slow transport.
(§5) The gallium product proband and dosing solution samples are analyzed by inductive coupled plasma optical emission spectrometry (ICP-OCP) to measure gallium concentration. Any non-gallium test articles and dosing solution samples are analyzed by HPLC. Positive controls are analyzed using scintillation counting.

[1] = as above; details: human, Caco-2
Source text: as §1, §2, §3, §4, §5

| Molecule | % Absorbed (Caco-2 monolayer cells) | Trsp (Caco-2 monolayer cells) | Ratio (Caco-2 transport ratio) (Caco-2 monolayer cells) | Papp A→B at 2 h [1] |
| --- | --- | --- | --- | --- |
| CC(C)NCC(O)COc1cccc2ccccc12 (stereo not drawn) [Propranalol] | 24.118% | 104.679 nm/s | 9.3 |  |
| Tri(octanoato) Gallium (III) Product [Example 1] | 9.890% | 42.930 nm/s | 3.8 |  |
| Tri(palmitato) Gallium (III) Product [Example 2] | 72.000% | 312.500 nm/s | 27.7 |  |
| Tri(palmitato) Gallium (III) Product [Example 3] | 31.579% | 137.060 nm/s | 12.1 |  |

Next, values leading:

| % Absorbed (Caco-2 monolayer cells) | Trsp (Caco-2 monolayer cells) | Ratio (Caco-2 transport ratio) (Caco-2 monolayer cells) | Papp A→B at 2 h [1] | Molecule |
| --- | --- | --- | --- | --- |
| 24.793% | 107.610 nm/s | 9.5 |  | Cc1occc(=O)c1[O-].Cc1occc(=O)c1[O-].Cc1occc(=O)c1[O-].[Ga+3] [Gallium Maltolate] |
| 2.603% |  | 1 | 1.13 ×10⁻⁶ cm/s | OC[C@@H](O)[C@@H](O)[C@H](O)[C@H](O)CO [Mannitol] |
